{
  "source": "ChEMBL document CHEMBL3120076",
  "about": "“Structure-activity relationship of Baifuzi-cerebrosides on BKCa channel activation” (Eur J Med Chem, 2014)",
  "type_in_all_cases": "cell-based",
  "key": {"[1]": {"tested_on": "CHO-K1", "test": "Activation of wild type BK calcium channel (unknown origin) expressed in CHO-K1 cells assessed as increase in channel open probability by whole cell patch-clamp technique relative to control", "details": "Homo sapiens"}, "[2]": {"tested_on": "CHO-K1", "test": "Activation of wild type BK calcium channel (unknown origin) expressed in CHO-K1 cells assessed as increase in channel open probability at 0.1 uM at +20 mV holding potential by whole cell patch-clamp technique (reference value: 0.58 +/- 0.03%)", "details": "Homo sapiens"}, "[3]": {"test": "(§1) Activation of wild type BK calcium channel (unknown origin) expressed in CHO-K1 cells assessed as increase in channel open probability at +20 mV holding potential by whole cell patch-clamp technique"}, "[4]": {"tested_on": "CHO-K1", "test": "as §1", "details": "Homo sapiens"}, "[5]": {"tested_on": "CHO-K1", "test": "Activation of wild type BK calcium channel (unknown origin) expressed in CHO-K1 cells assessed as increase in channel open probability at 10 uM at +20 mV holding potential by whole cell patch-clamp technique (reference value: 0.58 +/- 0.03%)", "details": "Homo sapiens"}, "[6]": {"tested_on": "CHO-K1", "test": "Activation of wild type BK calcium channel STREX domain-deleted mutant (unknown origin) expressed in CHO-K1 cells assessed as increase in channel open probability at 10 uM at +20 mV holding potential by whole cell patch-clamp technique (reference value: 0.7 +/- 0.1%)", "details": "Homo sapiens"}, "[7]": {"tested_on": "CHO-K1", "test": "Extracellular activation of wild type BK calcium channel (unknown origin) expressed in CHO-K1 cells assessed as increase in whole cell currents at 10 uM by whole cell patch-clamp technique", "details": "Homo sapiens"}, "[8]": {"tested_on": "CHO-K1", "test": "Activation of wild type BK calcium channel (unknown origin) expressed in CHO-K1 cells assessed as increase in channel open probability at 1 uM at +20 mV holding potential by whole cell patch-clamp technique (reference value: 0.58 +/- 0.03%)", "details": "Homo sapiens"}, "[9]": {"tested_on": "CHO-K1", "test": "Activation of wild type BK calcium channel (unknown origin) expressed in CHO-K1 cells assessed as increase in channel open probability at 5 uM at +20 mV holding potential by whole cell patch-clamp technique (reference value: 0.58 +/- 0.03%)", "details": "Homo sapiens"}},
  "note": "Active and inactive are the calls of the source. The rule behind the calls is not given here.",
  "data": [
    {"compound": "CCCCCCCCC/C=C\\CC/C=C/[C@@H](O)[C@H](CO[C@@H]1O[C@H](CO)[C@@H](O)[C@H](O)[C@H]1O)NC(=O)[C@H](O)CCCCCCCCCCCCCCCC", "values": [
      {"measurement": "fold change (FC)", "setting": "[1]", "result": 1.15}
    ]},
    {"compound": "CCCCCCCCC/C=C/CC/C=C/[C@@H](O)[C@H](CO[C@@H]1O[C@H](CO)[C@@H](O)[C@H](O)[C@H]1O)NC(=O)[C@H](O)CCCCCCCCCCCCCCCC", "values": [
      {"measurement": "fold change (FC)", "setting": "[1]", "result": 2.03}
    ]},
    {"compound": "CCCCCCCCC/C=C\\CC/C=C/[C@@H](O)[C@H](CO[C@@H]1O[C@H](CO)[C@@H](O)[C@H](O)[C@H]1O)NC(=O)[C@H](O)CCCCCCCCCCCCCCCCCC", "values": [
      {"measurement": "fold change (FC)", "setting": "[1]", "result": 1.89}
    ]},
    {"compound": "CCCCCCCCC/C=C\\CC/C=C/[C@@H](O)[C@H](CO[C@@H]1O[C@H](CO)[C@@H](O)[C@H](O)[C@H]1O)NC(=O)[C@H](O)CCCCCCCCCCCCCCCCCCCC", "values": [
      {"measurement": "Activity", "setting": "[2]", "result": 0.65, "unit": "%"},
      {"measurement": "EC50", "setting": "[3]", "result": 1000, "unit": "nM"},
      {"measurement": "Activity", "setting": "[4]", "result": "Dose-dependent effect"},
      {"measurement": "fold change (FC)", "setting": "[1]", "result": 5.34},
      {"measurement": "Activity", "setting": "[5]", "result": 4.2, "unit": "%"},
      {"measurement": "Activity", "setting": "[6]", "result": 0.9, "unit": "%"},
      {"measurement": "Activity", "setting": "[7]", "result": "Active"},
      {"measurement": "Activity", "setting": "[8]", "result": 2.4, "unit": "%"},
      {"measurement": "Activity", "setting": "[9]", "result": 3.3, "unit": "%"}
    ]},
    {"compound": "CCCCCCCCC/C=C/CC/C=C/[C@@H](O)[C@H](CO[C@@H]1O[C@H](CO)[C@@H](O)[C@H](O)[C@H]1O)NC(=O)[C@H](O)CCCCCCCCCCCCCCCCCC", "values": [
      {"measurement": "fold change (FC)", "setting": "[1]", "result": 3.12}
    ]}
  ]
}
